According to patent US9199999B2, “Substituted imidazopyrazines” (Bayer Intellectual Property GmbH, priority 2010, dated 2015):

Target: human kinase Mps-1 (Homo sapiens (Human), UniProt P33981)
Details: read-out: Mps-1 IC50; N-terminally GST-tagged human full length recombinant Mps-1; 10 μM ATP; 1 μM biotinylated peptide substrate; 60 min at 22° C.

human kinase Mps-1, sequence (P33981 whole entry): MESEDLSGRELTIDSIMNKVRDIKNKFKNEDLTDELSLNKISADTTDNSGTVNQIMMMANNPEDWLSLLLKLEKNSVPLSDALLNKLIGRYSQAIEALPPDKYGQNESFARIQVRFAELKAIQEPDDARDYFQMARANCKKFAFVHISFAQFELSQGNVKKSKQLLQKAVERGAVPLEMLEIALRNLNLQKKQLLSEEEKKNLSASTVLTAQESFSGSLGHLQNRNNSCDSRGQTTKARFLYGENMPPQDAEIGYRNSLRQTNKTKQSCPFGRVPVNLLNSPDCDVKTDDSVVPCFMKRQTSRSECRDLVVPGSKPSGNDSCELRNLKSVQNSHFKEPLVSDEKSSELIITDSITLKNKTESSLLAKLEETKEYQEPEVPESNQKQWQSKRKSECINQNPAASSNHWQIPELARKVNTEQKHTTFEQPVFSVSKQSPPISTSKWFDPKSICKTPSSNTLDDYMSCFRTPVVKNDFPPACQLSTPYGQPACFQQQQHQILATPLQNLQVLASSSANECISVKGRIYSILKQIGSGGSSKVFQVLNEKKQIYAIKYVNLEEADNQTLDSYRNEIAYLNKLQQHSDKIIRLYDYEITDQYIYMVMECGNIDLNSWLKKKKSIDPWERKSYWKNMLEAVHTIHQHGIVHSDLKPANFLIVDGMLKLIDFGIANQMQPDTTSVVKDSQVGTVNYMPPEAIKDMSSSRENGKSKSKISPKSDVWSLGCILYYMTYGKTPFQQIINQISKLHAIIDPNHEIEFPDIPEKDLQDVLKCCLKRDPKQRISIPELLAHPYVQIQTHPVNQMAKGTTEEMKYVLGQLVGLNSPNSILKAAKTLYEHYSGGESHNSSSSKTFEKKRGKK

Which IC50 does the source give for `O=C(NC1CC1)c1ccc(-c2cnc3c(NCCCO)nc(C#CCO)cn23)cc1` [Example 1, N-cyclopropyl-4-{8-[(3-hydroxypropyl)amino]-6-(3-hydroxyprop-1-yn-1-yl)imidazo[1,2-a]pyrazin-3-yl}benzamide] here?
Its IC50 is 31 nM.

How did the IC50 turn out when `CC(C)CNc1nc(C#Cc2ccccc2)cn2c(-c3ccc(S(=O)(=O)NC4CC4)cc3)cnc12` [Example 2, N-cyclopropyl-4-[8-(isobutylamino)-6-(phenylethynyl)imidazo[1,2-a]pyrazin-3-yl]benzenesulfonamide] was run?
The IC50 was 20000 nM.

For `CC(C)CNc1nc(C#Cc2ccccc2F)cn2c(-c3ccc(S(=O)(=O)NC4CC4)cc3)cnc12` [Example 3, N-cyclopropyl-4-{6-[(2-fluorophenyl)ethynyl]-8-(isobutylamino)imidazo[1,2-a]pyrazin-3-yl}benzenesulfonamide], which IC50 is on record?
The IC50 was 20000 nM.

With `CC(C)CNc1nc(C#CCO)cn2c(-c3ccc(S(=O)(=O)NC4CC4)cc3)cnc12` [Example 4, N-cyclopropyl-4-[6-(3-hydroxyprop-1-yn-1-yl)-8-(isobutylamino)imidazo[1,2-a]pyrazin-3-yl]benzenesulfonamide] as the molecule, how does the IC50 read?
The IC50 was 1840 nM.

For `CC(C)(O)C#Cc1cn2c(-c3ccc(C(=O)NC4CC4)cc3)cnc2c(NCCCCO)n1` [Example 8, N-cyclopropyl-4-{8-[(4-hydroxybutyl)amino]-6-(3-hydroxy-3-methylbut-1-yn-1-yl)imidazo[1,2-a]pyrazin-3-yl}benzamide], which IC50 is on record?
Its IC50 is 22 nM.

Which IC50 does the source give for `O=C(NC1CC1)c1ccc(-c2cnc3c(NCCCCO)nc(C#CC4(O)CCCC4)cn23)cc1` [Example 9, N-cyclopropyl-4-{8-[(4-hydroxybutyl)amino]-6-[(1-hydroxycyclopentyl)ethynyl]imidazo[1,2-a]pyrazin-3-yl}benzamide] here?
Its IC50 is 10 nM.

For `CC(C)(O)CNc1nc(C#CCO)cn2c(-c3ccc(C(=O)NC4CC4)cc3)cnc12` [Example 10, N-cyclopropyl-4-{8-[(2-hydroxy-2-methylpropyl)amino]-6-(3-hydroxyprop-1-yn-1-yl)imidazo[1,2-a]pyrazin-3-yl}benzamide], which IC50 is on record?
Its IC50 is 38 nM.

`COc1cc(C(=O)NC2CC2)ccc1-c1cnc2c(NCCCN)nc(C#CCO)cn12` [Example 11, 4-{8-[(3-Aminopropyl)amino]-6-(3-hydroxyprop-1-yn-1-yl)imidazo[1,2-a]pyrazin-3-yl}-N-cyclopropyl-3-methoxybenzamide] was tested. Which IC50 did it give?
The IC50 was 993 nM.

For `Cc1cc(-c2cnc3c(NCC(C)C)nc(C#CCO)cn23)ccc1C(=O)NC1CC1` [Example 49, N-cyclopropyl-4-{6-(3-hydroxyprop-1-yn-1-yl)-8-[(2-methylpropyl)amino]imidazo[1,2-a]pyrazin-3-yl}-2-methylbenzamide], which IC50 is on record?
The IC50 was 14 nM.

How did the IC50 turn out when `OCC#Cc1cn2c(-c3ccc(-c4cnc(C5CC5)[nH]4)cc3)cnc2c(NC[C@H](O)CO)n1` [Example 50, (2S)-3-({3-[4-(2-cyclopropyl-1H-imidazol-5-yl)phenyl]-6-(3-hydroxyprop-1-yn-1-yl)imidazo[1,2-a]pyrazin-8-yl}amino)propane-1,2-diol] was run?
The IC50 was 130 nM.

With `OCC#Cc1cn2c(-c3ccc(-c4cnc(C5CC5)[nH]4)cc3)cnc2c(NCCCC(F)(F)F)n1` [Example 51, 3-{3-[4-(2-Cyclopropyl-1H-imidazol-5-yl)phenyl]-8-[(4,4,4-trifluorobutyl)amino]imidazo[1,2-a]pyrazin-6-yl}prop-2-yn-1-ol] as the molecule, how does the IC50 read?
The IC50 was 15 nM.

`C=C(C)CNc1nc(C#CCO)cn2c(-c3ccc(-c4cnc(C5CC5)[nH]4)cc3)cnc12` [Example 52, 3-{3-[4-(2-Cyclopropyl-1H-imidazol-5-yl)phenyl]-8-[(2-methylprop-2-en-1-yl)amino]imidazo[1,2-a]pyrazin-6-yl}prop-2-yn-1-ol] was tested. Which IC50 did it give?
Its IC50 is 13 nM.

Which IC50 does the source give for `C=CCNc1nc(C#CCO)cn2c(-c3ccc(-c4cnc(C5CC5)[nH]4)cc3)cnc12` [Example 53, 3-{8-(Allylamino)-3-[4-(2-cyclopropyl-1H-imidazol-5-yl)phenyl]imidazo[1,2-a]pyrazin-6-yl}prop-2-yn-1-ol] here?
The IC50 was 18 nM.

How did the IC50 turn out when `CC(C)CNc1nc(C#CCO)cn2c(-c3ccc(-c4cnc(C5CC5)[nH]4)cc3)cnc12` [Example 54, 3-{3-[4-(2-Cyclopropyl-1H-imidazol-5-yl)phenyl]-8-(isobutylamino)imidazo[1,2-a]pyrazin-6-yl}prop-2-yn-1-ol] was run?
The IC50 was 8.4 nM.

With `CC(C)CNc1nc(C#CCO)cn2c(-c3cccc(-c4cnc(C5CC5)[nH]4)c3)cnc12` [Example 55, 3-{3-[3-(2-Cyclopropyl-1H-imidazol-5-yl)phenyl]-8-(isobutylamino)imidazo[1,2-a]pyrazin-6-yl}prop-2-yn-1-ol] as the molecule, how does the IC50 read?
The IC50 was 520 nM.

Which IC50 does the source give for `OCC#Cc1cn2c(-c3ccc(-c4cnc(C5CC5)[nH]4)cc3)cnc2c(NCCCCO)n1` [Example 56, 4-({3-[4-(2-Cyclopropyl-1H-imidazol-5-yl)phenyl]-6-(3-hydroxyprop-1-yn-1-yl)imidazo[1,2-a]pyrazin-8-yl}amino)butan-1-ol] here?
The IC50 was 23 nM.

Which IC50 does the source give for `OCC#Cc1cn2c(-c3ccc(-c4cnc(C5CC5)[nH]4)cc3)cnc2c(NCCC(F)(F)F)n1` [Example 57, 3-{3-[4-(2-Cyclopropyl-1H-imidazol-5-yl)phenyl]-8-[(3,3,3-trifluoropropyl)amino]imidazo[1,2-a]pyrazin-6-yl}prop-2-yn-1-ol] here?
The IC50 was 7.1 nM.

With `OCC#Cc1cn2c(-c3ccc(-c4cnc(C5CC5)[nH]4)cc3)cnc2c(NCC2CCC2)n1` [Example 58, 3-{8-[(Cyclobutylmethyl)amino]-3-[4-(2-cyclopropyl-1H-imidazol-5-yl)phenyl]imidazo[1,2-a]pyrazin-6-yl}prop-2-yn-1-ol] as the molecule, how does the IC50 read?
The IC50 was 5.3 nM.

Which IC50 does the source give for `OCC#Cc1cn2c(-c3ccc(-c4cnc(C5CC5)[nH]4)cc3)cnc2c(NCCCO)n1` [Example 59, 3-{3-[4-(2-Cyclopropyl-1H-imidazol-5-yl)phenyl]-8-[(3-hydroxypropyl)amino]imidazo[1,2-a]pyrazin-6-yl}prop-2-yn-1-ol] here?
Its IC50 is 53 nM.

For `O=S1(=O)CCN(CC#Cc2cn3c(-c4ccc(-c5cnc(C6CC6)[nH]5)cc4)cnc3c(NCCC(F)(F)F)n2)CC1` [Example 61, 3-[4-(2-cyclopropyl-1H-imidazol-5-yl)phenyl]-6-[3-(1,1-dioxidothiomorpholin-4-yl)prop-1-yn-1-yl]-N-(3,3,3-trifluoropropyl)imidazo[1,2-a]pyrazin-8-amine], which IC50 is on record?
The IC50 was 6.8 nM.

For `Cc1cc(-c2cnc3c(NCCC(F)(F)F)nc(C#CCN4CCS(=O)(=O)CC4)cn23)ccc1C(=O)NC1CC1` [Example 62, N-cyclopropyl-4-{6-[3-(1,1-dioxidothiomorpholin-4-yl)prop-1-yn-1-yl]-8-[(3,3,3-trifluoropropyl)amino]imidazo[1,2-a]pyrazin-3-yl}-2-methylbenzamide], which IC50 is on record?
Its IC50 is 4.2 nM.

With `C#Cc1cn2c(-c3ccc(C(=O)NC)c(C)c3)cnc2c(NCCC(F)(F)F)n1` [Example 63, 4-{6-Ethynyl-8-[(3,3,3-trifluoropropyl)amino]imidazo[1,2-a]pyrazin-3-yl}-N,2-dimethylbenzamide] as the molecule, how does the IC50 read?
Its IC50 is 135 nM.

`C#Cc1cn2c(-c3ccc(C(=O)NCC)c(C)c3)cnc2c(NCCC(F)(F)F)n1` [Example 64, N-ethyl-4-{6-ethynyl-8-[(3,3,3-trifluoropropyl)amino]imidazo[1,2-a]pyrazin-3-yl}-2-methylbenzamide] was tested. Which IC50 did it give?
Its IC50 is 120 nM.

With `C#Cc1cn2c(-c3ccc(C(=O)NCC(F)F)c(C)c3)cnc2c(NCCC(F)(F)F)n1` [Example 65, N-(2,2-difluoroethyl)-4-{6-ethynyl-8-[(3,3,3-trifluoropropyl)amino]imidazo[1,2-a]pyrazin-3-yl}-2-methylbenzamide] as the molecule, how does the IC50 read?
Its IC50 is 215 nM.
